Results from patent publication US10173995B2, “Pyridine compounds used as PI3 kinase inhibitors” (Teligene Ltd., priority 2013, dated 2019).

Key:
PI3K alpha (PIK3CA) = PI3K alpha (PIK3CA) (Homo sapiens (Human), UniProt P42336); experiment: In vitro assay of ability to inhibit PI3K alpha activity (phage-tagged kinase competition binding, qPCR)
Procedure: (§1) (a) An in vitro assay which determines the ability of a test compound to inhibit PI3K alpha activity: PI3 alpha (PIK3CA) kinase-tagged T7 phage strains were prepared in an E. coli host derived from the BL21 strain. E. coli were grown to log-phase and infected with T7 phage and incubated with shaking at 32° C. until lysis. The lysates were centrifuged and filtered to remove cell debris. The remaining kinases were produced in HEK-293 cells and subsequently tagged with DNA for qPCR detection. […] The liganded beads were blocked with excess biotin and washed with blocking buffer (SeaBlock (Pierce), 1% BSA, 0.05% Tween 20, 1 mM DTT) to remove unbound ligand and to reduce non-specific binding. Binding reactions were assembled by combining kinases, liganded affinity beads, and test compounds in 1× binding buffer (20% SeaBlock, 0.17×PBS, 0.05% Tween 20, 6 mM DTT). All reactions were performed in polystyrene 96-well plates in a final volume of 0.135 ml. The assay plates were incubated at room temperature with shaking for 1 hour and the affinity beads were washed with wash buffer (1×PBS, 0.05% Tween 20). […] The kinase concentration in the eluates was measured by qPCR.
An 11-point 3-fold serial dilution of each test compound was prepared in 100% DMSO at 100× final test concentration and subsequently diluted to 1× in the assay (final DMSO concentration=1%).
Binding constants (Kd's) were calculated with a standard dose-response curve using the Hill equation: Response=Background+(Signal−Background)/(1+(Kd^Hill Slope/Dose^Hill Slope)) The Hill Slope was set to −1. Curves were fitted using a non-linear least square fit with the Levenberg-Marquardt algorithm.

[1] = molecular target: MTOR (Mammalian target of rapamycin) (Homo sapiens (Human), UniProt P42345); experiment: In vitro assay of ability to inhibit MTOR (same conditions as PI3K alpha assay); type: binding; settings: read-out: IC50 for MTOR inhibition
Procedure: as §1, with “qPCR. […]” for “qPCR.”
Binding constants (Kd's) were calculated with a standard dose-response curve using the Hill equation: Response=Background+(Signal−Background)/(1+(Kd^Hill Slope/Dose^Hill Slope)) The Hill Slope was set to −1. […]

A549 cell line xenograft = experiment: In vivo subcutaneous A549 cell line xenograft model in nude mice, tumor growth inhibition; settings: for Tumor growth inhibition (TGI, %) at 14 days: day 14, A549 xenograft nude mice
Procedure: (§2) A representative protocol for the in vivo experiment is as follows to establish the subcutaneous A549 cell line xenograft model in nude mice and to evaluate the in vivo therapeutic efficacy of the compounds: A549 cells were cultured in RPMI1640 containing 10% fetal bovine serum, 1% L-glutamine, 100 U/mL penicillinG and 100 μg/mL streptomycin. Cells in logarithmic growth phase were harvested and resuspended in 1×PBS for implantation.
(§3) Tumor xenografts were established by injecting tumor cells 5×10^6/mouse into the right flank by sc under sterile conditions. When the tumors reached an appropriate size (100-200 mm^3), mice were randomized into 6 mice per group (8 mice in control group). The tumors were measured using a caliper in two dimensions, length (a), and width (b). Tumor volumes were estimated from measurements of two diameters of the individual tumors as follows: Tumor Volume(mm^3)=(a×b^2)/2 The tumor sizes and animal body weights were measured twice a week. Mice were observed daily for clinical signs. Blood samples were collected 2 hours after last treatment; plasma samples were prepared and stored at −80° C. Tumor tissues were separated, weighed, taken picture, and subsequently stored at −80° C. for further analysis. All animal experiments were performed in accordance with the Guidelines for Use and Care of Animals of the University of Traditional Medicine. The parameters for in vivo efficacy evaluation were calculated according to the guidance of SFDA. Percent T/C (%) was calculated with the following formula: T/C(%)=(TRTV/CRTV)×100%, where TRTV and CRTV stand for relative tumor volume in treatment group and vehicle control group, respectively. Relative tumor volume (RTV) was calculated using the formula: RTV=Vt/V0, where Vt represents volume on testing day, and V0 represents volume on first day of treatment. Tumor growth inhibition (TGI, %) were calculated as TGI (%)=(Ctw−Ttw)/Ctw×100%, where Ctw and Ttw represent mean tumor weight in vehicle control and treatment group, respectively.
(§4) Compound Preparation: Test articles were dissolved in 100% N-methylpyrrolidone (NMP) and 10× solutions were prepared every five days, aliquotted, and stored in the dark at room temperature. On each treatment day, stock solution aliquots were diluted with polyethylene glycol (PEG300) to provide the formulated drug in 10% NMP: 90% PEG300. Dosing solutions were protected from light, and the formulated drug was administered within 1 hour after preparation. In all groups, the dosing volume of 10 mL/kg (0.2 mL/20 g mouse) was scaled to the weight of each animal as determined on the day of dosing, except on weekends when the previous BW is carried forward. Test articles were administered by oral gavage (p.o.) once daily until the end of the study.
(§5) At study endpoint, after blood collection, mice were practiced euthanasia by cervical dislocation, the tumor tissue was collected first, then abdominal cavity was cut open, liver and spleen were excised, then weight after the gallbladder was removed respectively. Organ weight between the treated versus the control groups were compared.

[2] = Kidney weight change versus control in A549 xenograft model in nude mice; type: in vivo; settings: day 21, A549 xenograft nude mice
Procedure: as §2, §3, §4, §5

[3] = tested on: MCF-7 human breast cancer cell lines; experiment: MCF-7 cell proliferation assay (CCK-8/WST-8, 72 hours); type: cell-based; settings: MCF7, WST-8
Procedure: A representative number of compounds were assayed against MCF-7 human breast cancer cell lines using the cell proliferation assay:
1. MCF-7 cells were cultured in EMEM (GIBCO, Cat#41500) medium supplemented with 10% fetal bovine serum, 0.01 mg/ml human recombinant insulin and 1% penicillin-streptomycin solution, in the temperature of 37° C., 5% CO2 and 95% humidity. The cells were harvested during the logarithmic growth period and counted with hemocytometer. The cell viability will be over 98% by trypan blue exclusion. Cell Counting Kit-8 (Dojindo, Cat# CK04) was used. 2. A cell suspension (100 μl) was added into 96-well plates (triplicates for each cell concentration), the cell density was 4.0×10^3/well. The next day, the test articles or positive drug stock solution were dissolved in DMSO at the concentration of 10 mM, the stock solutions were diluted with DMSO by serial 3 or 10 fold dilution. Then the test articles dilutions were further diluted with culture medium to the final concentrations of (10.0 μM, 3.33 μM, 1.11 μM, 366 nM, 122 nM, 40.7 nM, 13.6 nM, 4.52 nM and 0 nM), the positive drug dilutions were further diluted with culture medium to 9 final concentrations of (10 μM, 1 μM, 100 nM, 10 nM, 1 nM, 0.1 nM, 0.01 nM, 0.001 nM and 0 nM). […] The absorbance was recorded at 450 nm using Victor Multilabel Plate Reader. […]

[4] = 49 μmol/kg oral gavage once daily
[5] = 98 μmol/kg oral gavage once daily

PI3K alpha (PIK3CA), sequence (P42336 whole entry, species assumed): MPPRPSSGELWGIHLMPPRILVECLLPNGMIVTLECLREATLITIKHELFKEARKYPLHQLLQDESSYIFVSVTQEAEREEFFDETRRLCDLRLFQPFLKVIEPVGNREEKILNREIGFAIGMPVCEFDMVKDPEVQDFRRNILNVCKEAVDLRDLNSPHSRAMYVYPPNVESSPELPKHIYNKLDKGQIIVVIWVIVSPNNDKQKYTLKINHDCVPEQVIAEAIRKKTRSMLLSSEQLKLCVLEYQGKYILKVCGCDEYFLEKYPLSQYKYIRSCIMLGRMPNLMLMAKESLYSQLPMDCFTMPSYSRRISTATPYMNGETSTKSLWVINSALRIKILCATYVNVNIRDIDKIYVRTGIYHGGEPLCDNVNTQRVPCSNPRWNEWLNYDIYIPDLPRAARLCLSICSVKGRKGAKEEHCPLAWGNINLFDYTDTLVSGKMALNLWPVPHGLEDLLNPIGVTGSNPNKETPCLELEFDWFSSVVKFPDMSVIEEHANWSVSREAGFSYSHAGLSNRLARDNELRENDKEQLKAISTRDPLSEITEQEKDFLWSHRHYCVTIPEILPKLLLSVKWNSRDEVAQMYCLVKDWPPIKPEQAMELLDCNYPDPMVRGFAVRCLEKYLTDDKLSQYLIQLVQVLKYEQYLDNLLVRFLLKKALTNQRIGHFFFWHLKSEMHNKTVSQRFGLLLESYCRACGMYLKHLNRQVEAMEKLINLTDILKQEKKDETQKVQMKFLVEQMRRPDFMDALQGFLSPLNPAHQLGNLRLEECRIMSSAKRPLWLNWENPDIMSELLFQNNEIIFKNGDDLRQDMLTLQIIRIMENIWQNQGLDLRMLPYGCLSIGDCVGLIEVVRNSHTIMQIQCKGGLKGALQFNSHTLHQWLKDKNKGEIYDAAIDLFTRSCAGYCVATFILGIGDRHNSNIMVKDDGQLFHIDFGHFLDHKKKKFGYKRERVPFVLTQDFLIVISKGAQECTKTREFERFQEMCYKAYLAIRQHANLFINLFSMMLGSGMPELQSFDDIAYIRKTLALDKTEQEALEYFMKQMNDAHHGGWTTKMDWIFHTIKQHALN

Row | SMILES | IC50 (PI3K alpha (PIK3CA)) [µM] | Kidney weight change compared to the control at 21 days [2, 4] [%] | Kidney weight change compared to the control at 21 days [2, 5] [%] | IC50 [3] [µM] | Tumor growth inhibition (TGI, %) at 14 days (A549 cell line xenograft; [4]) [%] | Tumor growth inhibition (TGI, %) at 14 days (A549 cell line xenograft; [5]) [%] | further results
1 | CNc1cc(C(F)(F)F)c(-c2cc(N3CCOCC3)nc(N3CCOCC3)n2)cn1 [Compound 4, 5-(2,6-dimorpholinopyrimidin-4-yl)-N-methyl-4-(trifluoromethyl)pyridin-2-amine] | 0.0019 |  |  |  |  |  | 
2 | CCNc1cc(C(F)(F)F)c(-c2cc(N3CCOCC3)nc(N3CCOCC3)n2)cn1 [Compound 5, 5-(2,6-dimorpholinopyrimidin-4-yl)-N-ethyl-4-(trifluoromethyl)pyridin-2-amine] | 0.01 |  |  |  |  |  | 
3 | CCCNc1cc(C(F)(F)F)c(-c2cc(N3CCOCC3)nc(N3CCOCC3)n2)cn1 [Compound 6, 5-(2,6-dimorpholinopyrimidin-4-yl)-N-propyl-4-(trifluoromethyl)pyridin-2-amine] | 0.06 |  |  |  |  |  | 
4 | NCC(=O)Nc1cc(C(F)(F)F)c(-c2cc(N3CCOCC3)nc(N3CCOCC3)n2)cn1 [Compound 9, 2-amino-N-(5-(2,6-dimorpholinopyrimidin-4-yl)-4-(trifluoromethyl)pyridin-2-yl)acetamide] | 0.00084 | −5.0 | −8.1 |  |  |  | IC50 [1]: 0.026 µM; Efficacy in A549 xenograft model at day 21 (in words) (A549 cell line xenograft; 49 μmol/kg dose, day 21): better efficacy than Compound 1; Kidney weight decrease compared with the control (in words) [2]: much less decreased kidney weight than Compound 1
5 | Nc1cc(C(F)(F)F)c(-c2cc(N3CCOCC3)nc(N3CCOCC3)n2)cn1 [Compound 1, 5-(2,6-Dimorpholinopyrimidin-4-yl)-4-(trifluoromethyl)pyridin-2-amine, reference compound] |  | −8.7 | −20.1 | 0.186 | 36 | 70 | 
6 | CC(=O)Nc1cc(C(F)(F)F)c(-c2cc(N3CCOCC3)nc(N3CCOCC3)n2)cn1 [Compound 2, N-(5-(2,6-dimorpholinopyrimidin-4-yl)-4-(trifluoromethyl)pyridin-2-yl)acetamide] |  |  |  | 0.0824 | 52 | 82 | 
